Measurements published in article PMC9780888, “4-Isobutylmethcathinone—A Novel Synthetic Cathinone with High In Vitro Cytotoxicity and Strong Receptor Binding Preference of Enantiomers” (Pharmaceuticals, 2022).
Read-outs that look alike come from different tables or passages of the source.

System: 5637, SH-SY5Y, HMC-3, Hep G2, L929; HaCaT, CaCo-2, MRC-5, BJ cells
Experiment: WST-1 viability assay, summary ranges over groups of cell lines
Assay type: cell-based
Experimental: Based on the novelty of the IMBcat compound, we aimed to evaluate its in vitro cytotoxicity in selected model cell lines as well as to determine the toxicity of the IBMcat enantiomers, since both the chemical structure and chirality of compounds could play a role in their bioactivity (Table 2). The cytotoxic profile of the IBMcat was determined by a WST-1 viability assay after 72-h treatment. For this purpose, cell lines derived from distinct tissues, often affected by NPSs, were chosen, i.e., cells of kidney, hepatic, neural, urinary, and intestinal origin as well as keratinocytes and primary fibroblasts (HEK 293T, Hep G2, HMC-3, SH-SY5Y, 5637, CaCo-2, HaCaT, MRC-5, and BJ, respectively). […]
In this study, the following cell lines were used: HEK 293T, Hep G2, HMC-3, SH-SY5Y, 5637, CaCo-2, HaCaT, MRC-5, BJ, and L929. […] The selected cell lines were chosen so that not only primary noncancerous cells are evaluated but also cells derived from tissues, which are the most often affected by novel synthetic drugs, i.e., kidney, liver, urinary bladder, and nervous tissue. […]
The cytotoxicity of IBMCat was evaluated in vitro by using a WST-1 viability assay (Sigma-Aldrich, Saint Louis, MO, USA) based on the transformation of a tetrazolium salt into colored formazan in metabolically active cells. […] After 72 h of additional incubation of the cells, their viability was determined by WST-1. […]

## CNC(C)C(=O)c1ccc(CC(C)C)cc1.Cl (centres unmarked) [IBMcat, 4-isobutylmethcathinone hydrochloride]
5637, SH-SY5Y, HMC-3 and Hep G2 cells, after 72 h, read-out: IC50 values (range over cell lines)
  IC50: 18 to 65 µM
HaCaT, CaCo-2, MRC-5 and BJ cells, 72 h, racemate and enantiomers, read-out: IC50 (range over cell lines)
  IC50: 329 to 749 µM
